Experimental data from patent US4753953A, “Pyridonecarboxylic acid derivatives and antibacterial pharmaceutical compositions thereof” (priority 1985, dated 1988).
Converted amounts (≈) assume the structure as drawn. Where two headings read alike, the source gives them in different places.

What was measured:
[1] = system: Staphylococcus aureus 209 P; assay: MIC, in vitro antibacterial activity (standard strains); assay type: cell-based; settings: Staphylococcus aureus, 209P; 10^6 cells/ml; Gram +; read-out: MIC
[2] = system: S. aureus Smith; assay: as above; assay type: cell-based, Staphylococcus aureus; settings: Staphylococcus aureus; 10^6 cells/ml; Gram +; read-out: MIC
[3] = system: S. aureus IID 670 (Terajima); assay: as above; assay type: cell-based, Staphylococcus aureus; settings: Staphylococcus aureus, IID670; 10^6 cells/ml; Gram +; read-out: MIC
[4] = system: S. pyogenes IID 692; assay: as above; assay type: cell-based, Streptococcus pyogenes; settings: Streptococcus pyogenes, IID692; 10^6 cells/ml; Gram +; read-out: MIC
[5] = system: S. pneumoniae IID 552; assay: as above; assay type: cell-based; settings: Streptococcus pneumoniae, IID552; 10^6 cells/ml; Gram +; read-out: MIC
[6] = system: E. coli ATCC 10536; assay: as above; assay type: cell-based, Escherichia coli; settings: Escherichia coli, ATCC10536; 10^6 cells/ml; Gram -; read-out: MIC
[7] = system: E. coli ML 4707; assay: as above; assay type: cell-based, Escherichia coli; settings: Escherichia coli, ML4707, 10^6 cells/ml; Gram -; Table 1; read-out: MIC
[8] = system: Proteus vulgaris IFO 3167; assay: as above; assay type: cell-based; settings: Proteus vulgaris, IFO3167; 10^6 cells/ml; Gram -; read-out: MIC
[9] = system: Klebsiella pneumoniae KY(GN)6445; assay: as above; assay type: cell-based; settings: Klebsiella pneumoniae; 10^6 cells/ml; Gram -; read-out: MIC
[10] = system: Enterobacter cloacae IID 977; assay: as above; assay type: cell-based; settings: Enterobacter cloacae, IID977; 10^6 cells/ml; Gram -; read-out: MIC
[11] = system: Shigella sonnei IID 969; assay: as above; assay type: cell-based; settings: Shigella sonnei, IID969; 10^6 cells/ml; Gram -; read-out: MIC
Method: Minimal inhibitory concentrations (MICs) were determined in accordance with the method recommended by Japan Society of Chemotherapy.

[12] = system: Salmonella enteritidis IID 604; assay: as above; assay type: cell-based; settings: Salmonella enterica; 10^6 cells/ml; Gram -; read-out: MIC
[13] = system: P. aeruginosa IID 1210; assay: as above; assay type: cell-based, Pseudomonas aeruginosa; settings: Pseudomonas aeruginosa, IID1210; 10^6 cells/ml; Gram -; read-out: MIC
[14] = system: P. cepacia GIFU 518; assay: as above; assay type: cell-based; settings: Burkholderia cepacia, GIFU518
[15] = system: P. maltophilia GIFU 2491; assay: as above; assay type: cell-based; settings: Stenotrophomonas maltophilia, GIFU2491; 10^6 cells/ml; Gram -; read-out: MIC
[16] = system: Yersinia enterocolitica IID 981; assay: as above; assay type: cell-based; settings: Yersinia enterocolitica, IID981; 10^6 cells/ml; Gram -; read-out: MIC
[17] = system: Acinetobacter anitratus IID 876; assay: as above; assay type: cell-based; settings: Acinetobacter calcoaceticus, IID876; 10^6 cells/ml; Gram -; read-out: MIC
[18] = system: Alcaligenes faecalis 0114002; assay: as above; assay type: cell-based; settings: Alcaligenes faecalis, 0114002; 10^6 cells/ml; Gram -; read-out: MIC
[19] = system: Bacteroides fragilis GM 7000; assay: as above; assay type: cell-based; settings: Bacteroides fragilis, GM7000; 10^6 cells/ml; Gram -; read-out: MIC
[20] = system: B. fragilis 0558; assay: as above; assay type: cell-based, Bacteroides fragilis; settings: Bacteroides fragilis, 0558; 10^6 cells/ml; Gram -; read-out: MIC
[21] = system: B. fragilis 25285; assay: as above; assay type: cell-based, Bacteroides fragilis; settings: Bacteroides fragilis, 25285; 10^6 cells/ml; Gram -; read-out: MIC
[22] = system: B. thetaiotaomicron (0661); assay: as above; assay type: cell-based; settings: Bacteroides thetaiotaomicron; 10^6 cells/ml; Gram -; read-out: MIC
[23] = system: B. vulgatus KYA 29327; assay: as above; assay type: cell-based; settings: Phocaeicola vulgatus, KYA29327; 10^6 cells/ml; Gram -; read-out: MIC
[24] = system: Fusobacterium mortiferum 4249; assay: as above; assay type: cell-based; settings: Fusobacterium mortiferum, 4249; 10^6 cells/ml; Gram -; read-out: MIC
[25] = system: F. necrophorum S-45; assay: as above; assay type: cell-based; settings: Fusobacterium necrophorum, S45; 10^6 cells/ml; Gram -; read-out: MIC
[26] = system: Eubacterium lentum GAI 5242; assay: as above; assay type: cell-based; settings: Eggerthella lenta, GAI5242; 10^6 cells/ml; Gram +; read-out: MIC
[27] = system: Peptococcus magnus KY 017; assay: as above; assay type: cell-based; settings: Finegoldia magna, KY017; 10^6 cells/ml; Gram +; read-out: MIC
[28] = system: C. perfringens KYA 13123; assay: microbe, parasite or virus in culture; assay type: cell-based; settings: Clostridium perfringens, KYA13123
[29] = system: C. ramosum; assay: MIC, in vitro antibacterial activity (standard strains); assay type: cell-based; settings: Thomasclavelia ramosa; 10^6 cells/ml; Gram +; read-out: MIC
[30] = system: Pst. micros UPI 5464-1; assay: as above; assay type: cell-based; settings: Parvimonas micra, UPI54641; 10^6 cells/ml; Gram +; read-out: MIC
[31] = system: Veillonella parvula KYA 10790; assay: as above; assay type: cell-based; settings: Veillonella parvula, KYA10790; 10^6 cells/ml; Gram -; read-out: MIC
[32] = system: B. distasonis 8503; assay: as above; assay type: cell-based; settings: Parabacteroides distasonis, 8503; 10^6 cells/ml; Gram -; read-out: MIC

SMILES: C[C@H]1CN(c2c(F)cc3c(=O)c(C(=O)O)cn4c3c2OC[C@@H]4C)C[C@H]1N.Cl (mixture of isomers) [Example 31, (3S)-10-(cis-3-Amino-4-methyl-1-pyrrolidinyl)-9-fluoro-2,3-dihydro-3-methyl-7-oxo-7H-pyrido[1,2,3-de][1,4]benzoxazine-6-carboxylic acid hydrochloride]
- MIC [1]: 0.2 µg/mL
- MIC [2]: 0.2 µg/mL
- MIC [3]: 0.2 µg/mL
- MIC [4]: 0.2 µg/mL
- MIC [5]: 0.2 µg/mL
- MIC [6]: 0.025 µg/mL
- MIC [7]: 0.025 µg/mL
- MIC [8]: 0.1 µg/mL
- MIC [9]: 0.05 µg/mL
- MIC [10]: 0.1 µg/mL
- MIC [11]: 0.05 µg/mL
- MIC [12]: 0.1 µg/mL
- MIC [13]: 3.13 µg/mL
- MIC ([14]; 10^6 cells/ml, Gram -, read-out: MIC): 1.56 µg/mL
- MIC [15]: 0.78 µg/mL
- MIC [16]: 0.1 µg/mL
- MIC [17]: 1.56 µg/mL
- MIC [18]: 0.39 µg/mL
- MIC [19]: 1.56 µg/mL
- MIC [20]: 0.78 µg/mL
- MIC [21]: 0.78 µg/mL
- MIC [22]: 3.13 µg/mL
- MIC [23]: 3.13 µg/mL
- MIC [24]: 0.39 µg/mL
- MIC [25]: 0.39 µg/mL
- MIC [26]: 0.39 µg/mL
- MIC [27]: 0.2 µg/mL
- MIC [28]: 0.2 µg/mL
- MIC [29]: 6.25 µg/mL
- MIC [30]: 0.2 µg/mL
- MIC [31]: 0.2 µg/mL

SMILES: C[C@@H]1CN(c2c(F)cc3c(=O)c(C(=O)O)cn(C4CC4)c3c2Cl)C[C@H]1N (relative stereo) [Example 17, 7-(trans-3-Amino-4-methyl-1-pyrrolidinyl)-8-chloro-1-cyclopropyl-6-fluoro-1,4-dihydro-4-oxo-3-quinolinecarboxylic acid]
- MIC [1]: 0.025 µg/mL (≈ 0.0658 µM)
- MIC [2]: 0.025 µg/mL (≈ 0.0658 µM)
- MIC [3]: 0.05 µg/mL (≈ 0.132 µM)
- MIC [6]: 0.0063 µg/mL (≈ 0.0166 µM)
- MIC [7]: 0.0063 µg/mL (≈ 0.0166 µM)
- MIC [8]: 0.0125 µg/mL (≈ 0.0329 µM)
- MIC [9]: 0.0125 µg/mL (≈ 0.0329 µM)
- MIC [10]: 0.05 µg/mL (≈ 0.132 µM)
- MIC [11]: 0.0063 µg/mL (≈ 0.0166 µM)
- MIC [12]: 0.025 µg/mL (≈ 0.0658 µM)
- MIC [13]: 0.39 µg/mL (≈ 1.03 µM)
- MIC [14]: 0.2 µg/mL (≈ 0.527 µM)
- MIC [15]: 0.05 µg/mL (≈ 0.132 µM)
- MIC [16]: 0.025 µg/mL (≈ 0.0658 µM)
- MIC [17]: 0.025 µg/mL (≈ 0.0658 µM)
- MIC [18]: 0.05 µg/mL (≈ 0.132 µM)
- MIC [19]: 0.05 µg/mL (≈ 0.132 µM)
- MIC [20]: 0.05 µg/mL (≈ 0.132 µM)
- MIC [21]: 0.05 µg/mL (≈ 0.132 µM)
- MIC [32]: 0.1 µg/mL (≈ 0.263 µM)
- MIC [22]: 0.1 µg/mL (≈ 0.263 µM)
- MIC [23]: 0.05 µg/mL (≈ 0.132 µM)
- MIC [24]: 0.1 µg/mL (≈ 0.263 µM)
- MIC [25]: 0.05 µg/mL (≈ 0.132 µM)
- MIC [26]: 0.05 µg/mL (≈ 0.132 µM)
- MIC [27]: 0.05 µg/mL (≈ 0.132 µM)
- MIC [28]: 0.05 µg/mL (≈ 0.132 µM)
- MIC [29]: 0.39 µg/mL (≈ 1.03 µM)
- MIC [30]: 0.05 µg/mL (≈ 0.132 µM)
- MIC [31]: 0.05 µg/mL (≈ 0.132 µM)
